Consider 1 compound from BindingDB's records for patent US11926614 (Oslo Universitetssykehus, 2024).

The IC50 is the concentration that inhibits the measured activity by half. The low end stands for greater potency in that assay, the high end for weaker potency in that assay.

The experiment has as its target T1, Poly [ADP-ribose] polymerase tankyrase-2 (Homo sapiens, UniProt Q9H2K2).
T1 sequence (Q9H2K2 whole entry): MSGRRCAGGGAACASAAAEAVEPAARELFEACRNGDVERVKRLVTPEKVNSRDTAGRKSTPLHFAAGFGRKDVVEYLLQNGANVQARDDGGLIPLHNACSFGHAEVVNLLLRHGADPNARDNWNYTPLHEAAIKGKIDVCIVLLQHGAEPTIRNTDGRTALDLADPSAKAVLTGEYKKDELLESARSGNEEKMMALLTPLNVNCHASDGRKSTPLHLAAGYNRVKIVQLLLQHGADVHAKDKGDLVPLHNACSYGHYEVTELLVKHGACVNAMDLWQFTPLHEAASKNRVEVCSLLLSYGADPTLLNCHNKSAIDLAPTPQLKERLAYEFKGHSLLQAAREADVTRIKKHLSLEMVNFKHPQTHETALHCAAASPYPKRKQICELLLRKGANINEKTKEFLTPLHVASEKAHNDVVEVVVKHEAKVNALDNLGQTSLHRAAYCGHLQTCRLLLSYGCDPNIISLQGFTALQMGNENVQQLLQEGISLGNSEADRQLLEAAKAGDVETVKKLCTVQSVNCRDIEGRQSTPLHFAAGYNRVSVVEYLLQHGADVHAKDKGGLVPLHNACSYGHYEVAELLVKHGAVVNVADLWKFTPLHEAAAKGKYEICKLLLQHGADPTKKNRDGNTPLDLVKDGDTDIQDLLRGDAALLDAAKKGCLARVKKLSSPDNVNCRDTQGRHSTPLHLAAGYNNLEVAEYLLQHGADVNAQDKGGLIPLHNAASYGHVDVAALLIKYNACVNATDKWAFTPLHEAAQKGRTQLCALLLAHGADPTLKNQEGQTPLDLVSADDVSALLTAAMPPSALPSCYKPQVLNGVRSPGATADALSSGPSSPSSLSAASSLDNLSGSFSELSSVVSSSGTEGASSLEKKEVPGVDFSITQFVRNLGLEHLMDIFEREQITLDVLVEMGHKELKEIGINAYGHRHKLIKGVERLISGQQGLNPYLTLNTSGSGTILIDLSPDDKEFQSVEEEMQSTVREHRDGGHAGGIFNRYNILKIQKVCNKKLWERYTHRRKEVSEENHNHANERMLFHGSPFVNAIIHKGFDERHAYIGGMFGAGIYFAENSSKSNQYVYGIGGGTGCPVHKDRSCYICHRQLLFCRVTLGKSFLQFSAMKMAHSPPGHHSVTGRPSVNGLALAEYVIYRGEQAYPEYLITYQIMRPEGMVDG
Description: Biochemical Assay. The source says: IC50 calculations:XLfit (idbs) was used to determine the IC50-values in inhibition experiments. The following formula was chosen to fit the data points (Langmuir Binding Isotherm):fit=((A+(B*x))+[…]*(1−exp((−1*D)*x)))/D)), res=(y−fit)

`O=C(N[C@H]1C[C@H](c2nnc(-c3nccs3)n2-c2ccccc2F)C1)c1ccnc2cc(F)cnc12` [US11926614, Example 29] displayed a concentration for half-maximal inhibition (IC50) of 2 nM.
